Measured values: patent publication US10780069B2, “Use of GC-1 in transplant related population” (University of Pittsburgh—Of the Commonwealth System of …, priority 2017, dated 2020)

Test system: hepatocytes
Assay: GC-1 or T3 in hepatocyte specific β-catenin knockout mice (β-Cat LKO) and littermate controls
Type: in vivo
Protocol: Eight to 10 week old male hepatocyte specific β-catenin knockout mice (β-cat-LKO) or sex-matched littermate controls obtained from breeding homozygous floxed β-catenin mice and albumin-cre transgenic mice (as described elsewhere (Tan et al., (2006) Gastroenterology 131, 1561-1572)) were given 8 daily IP injections of GC-1 (n=4) or DMSO (n=4) and harvested around 24 hours after the last injection.
To label dividing hepatocytes, BrdU (5-bromodeoxyuridine) dissolved in drinking water (1 mg/ml) was given to all animals throughout the experiment period. The animals were given food and water ad libitum with a 12-hour light/dark daily cycle.
Four micron liver sections were analyzed by immunohistochemistry for β-Catenin (BD Biosciences, San Jose, Calif.), Cyclin-D1 (Thermo-Scientific, Fremont, Calif.) and PCNA (Santa Cruz Biotechnology, Dallas, Tex.). Briefly, formalin-fixed sections were deparaffinized in graded xylene and alcohol. Endogenous peroxidase was inactivated using 3% hydrogen peroxide (Sigma). For β-Catenin, Cyclin-D1 staining, slides were microwaved in Citrate buffer followed by blocking with Superblock for 10 minutes. Sections were then incubated with secondary anti-mouse (for β-catenin) or anti-rabbit (for Cyclin-D1) horseradish peroxidase-conjugated antibody for 30 minutes.
Bromodeoxyuridine (BrdU) was stained with mouse antibody (Becton Dickinson) as previously described (Fanti et al. (2014) Hepatology 59, 2309-2320). Briefly, tissue sections were deparaffinized, exposed to 0.3% hydrogen peroxide in deionized water for 10 minutes to block endogenous peroxidase, treated with 2N HCl, incubated with trypsin 0.1% for 20 minutes and then with normal goat serum for 20 minutes at room temperature. Sections were then incubated overnight in cold room with anti-BrdU monoclonal antibody, followed by biotinylated goat anti-mouse IgG. DAB kit was then applied, and sections were counterstained with hematoxylin. A small segment of intestine was included from each mouse as a positive control for the staining. For quantification of BrdU staining, at least 10 high power fields (400× or 600×) fields each from at least three biological replicates were counted as indicated in the figures. Statistical analysis was performed as described below.
Protein extraction from frozen liver tissue and western blot analysis were performed as previously described (Fanti et al., (2014) Hepatology 59, 2309-2320). For protein extraction, a small amount of frozen liver tissue was obtained (over dry ice) and was homogenized using RIPA buffer with protease and phosphatase inhibitor cocktail (Sigma, St. Louis, Mo.). Samples were transferred to a 1.5 ml tube on ice, and spun in cold room centrifuge at 14,000 RPM for 5 minutes. Pellet was then discarded and sample was aliquoted and stored at −80 C for use. Fifty micrograms of the proteins were resolved by sodium dodecyl sulfate-polyacrylamide gel electrophoresis analysis, and transferred to immobilon-polyvinylidene difluoride membranes.
The primary antibodies used were against β-catenin (BD Biosciences); pSer675-β-catenin, pSer552-β-catenin, Active-β-catenin (Cell-Signaling), Cyclin-D1 (Thermo-Scientific), and β-Actin (Sigma). Dilutions of primary antibody were done according to manufacturer recommendations (1:1000 for all except Cyclin-D1 which was 1:200). Horseradish peroxidase-conjugated secondary antibodies used were goat anti-mouse (1:20,000) and goat anti-rabbit (1:10,000) (Millipore). The proteins were detected by Super-Signal West Pico Chemiluminescense Substrate (Thermo Scientific, Rockford Ill.) and visualized by autoradiography.
Total RNA was extracted by homogenizing frozen liver tissues in Trizol reagent (Invitrogen, Carlsbad, Calif.) from GC-1-injected β-Cat LKO (n=4) and littermate control mice (n=4); and GC-1-injected LRP5-6 LKO (n=3) and littermate control mice (n=3). […]

## Cc1cc(OCC(=O)O)cc(C)c1Cc1ccc(O)c(C(C)C)c1 [GC-1, Sobetirome]
β-Cat LKO after T3 or GC-1 treatment
  active β-catenin, Western blot: very faint signal
β-Cat LKO vs controls treated with GC-1 or T3
  P-Ser675-β-catenin, Western blot: absent
β-Cat LKO vs controls, GC-1
  nuclear cyclin-D1 by immunohistochemistry: notable decrease
β-Cat LKO vs littermate controls, GC-1 0.3 mg/Kg/dose IP, 8 days
  BrdU incorporation in hepatocytes (hepatocyte proliferation): decreased hepatocyte proliferation
β-Cat LKO, GC-1 IP
  BrdU incorporation in non-parenchymal cell population: notable BrdU incorporation continued to occur
β-catenin-LKO mice receiving GC-1 vs controls
  cyclin-D1 mRNA expression (RT-PCR): significant decrease
